According to patent US8759535B2, “Substituted fused imidazole derivatives, pharmaceutical compositions, and methods of use thereof” (High Point Pharmaceuticals, LLC, priority 2010, dated 2014):

The compounds below were run on HMOX1 (assay: HMOX1 Protein Assay (immunostaining of HO-1 in NHLF cells, GE InCell 1000)). Settings: Homo sapiens, fold change above DMSO treated cells, 3 μM compound (asterisk), 16 h.
Type: cell-based
Outline: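 NHLF cells seeded overnight in FGM-2, then exposed to compound or DMSO vehicle for 16 h, fixed, and immunostained for HO-1 with Hoechst nuclear counterstain; imaged on InCell 1000. Values are fold change over DMSO-treated cells, generally at 5 μM (0.8% DMSO), with asterisked entries at 3 μM.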
`C[C@H](NC(=O)c1ccc2c(c1)nc(Nc1nc3ccc(C(F)(F)F)cc3s1)n2C)C(=O)N1CCOCC1` [Example 466, 1-Methyl-2-(6-trifluoromethyl-benzothiazol-2-ylamino)-1H-benzoimidazole-5-carboxylic acid ((S)-1-methyl-2-morpholin-4-yl-2-oxo-ethyl)-amide] was tested, and the fold induction at 3 µM was 22.4.
`CNC(=O)CNC(=O)c1ccc2c(c1)nc(Nc1nc3ccc(Cl)cc3s1)n2C` [Example 380, 2-(6-Chloro-benzothiazol-2-ylamino)-1-methyl-1H-benzoimidazole-5-carboxylic acid methylcarbamoylmethyl-amide] showed a fold induction at 3 µM of 30.

Same assay, conditions: Homo sapiens, fold change above DMSO treated cells, 5 μM compound, 16 h
Work on `CCSCCNC(=O)c1ccc2c(c1)nc(Nc1nc3ccc(OC(F)(F)F)cc3s1)n2C` [Example 107, 1-Methyl-2-(6-trifluoromethoxy-benzothiazol-2-ylamino)-1H-benzoimidazole-5-carboxylic acid (2-ethylsulfanyl-ethyl)-amide] yielded a fold induction at 5 µM of 18.6.
`Cn1c(Nc2nc3ccc(OC(F)(F)F)cc3s2)nc2cc(C(=O)NCC(=O)N3CCOCC3)cnc21` [Example 420, 3-Methyl-2-(6-trifluoromethoxy-benzothiazol-2-ylamino)-3H-imidazo[4,5-b]pyridine-6-carboxylic acid (2-morpholin-4-yl-2-oxo-ethyl)-amide] gave a fold induction at 5 µM of 33.
With `CNC(=O)c1ccc2nc(Nc3nc4ccc(OC(F)(F)F)cc4s3)n(C)c2c1` [Example 38, 3-Methyl-2-(6-trifluoromethoxy-benzothiazol-2-ylamino)-3H-benzoimidazole-5-carboxylic acid methylamide] the fold induction at 5 µM was 18.
Work on `COC(=O)c1ccc2c(c1)nc(Nc1nc3ccc(C)cc3s1)n2C` [Example 114, 1-Methyl-2-(6-methyl-benzothiazol-2-ylamino)-1H-benzoimidazole-5-carboxylic acid methyl ester] yielded a fold induction at 5 µM of 5.1.
`Cn1c(Nc2nc3ccc(Cl)cc3s2)nc2cc(C(=O)NCCOCCCF)ccc21` [Example 249, 2-(6-Chloro-benzothiazol-2-ylamino)-1-methyl-1H-benzoimidazole-5-carboxylic acid [2-(3-fluoro-propoxy)-ethyl]-amide] was tested, and the fold induction at 5 µM was 31.2.
Compound `Cn1c(Nc2nc3ccc(OC(F)(F)F)cc3s2)nc2cc(C(=O)NCC(C)(C)CO)ccc21` [Example 217, 1-Methyl-2-(6-trifluoromethoxy-benzothiazol-2-ylamino)-1H-benzoimidazole-5-carboxylic acid (3-hydroxy-2,2-dimethyl-propyl)-amide] has a fold induction at 5 µM of 20.7.
With `COC(=O)CCNC(=O)c1ccc2c(c1)nc(Nc1nc3ccc(OC(F)(F)F)cc3s1)n2C` [Example 97, 3-{[1-Methyl-2-(6-trifluoromethoxy-benzothiazol-2-ylamino)-1H-benzoimidazole-5-carbonyl]-amino}-propionic acid methyl ester] the fold induction at 5 µM was 19.2.
`Cn1c(Nc2nc3ccc(Cl)cc3s2)nc2cc(C(=O)NC[C@H]3CC[C@H](CO)CC3)ccc21` [Example 255, 2-(6-Chloro-benzothiazol-2-ylamino)-1-methyl-1H-benzoimidazole-5-carboxylic acid (trans-4-hydroxymethyl-cyclohexylmethyl)-amide] was tested, and the fold induction at 5 µM was 49.3.
For `Cn1c(Nc2nc3ccc(OC(F)(F)F)cc3s2)nc2cc(C(=O)N(CCO)CCO)ccc21` [Example 284, 1-Methyl-2-(6-trifluoromethoxy-benzothiazol-2-ylamino)-1H-benzoimidazole-5-carboxylic acid bis-(2-hydroxy-ethyl)-amide], the fold induction at 5 µM was 47.4.
`COCCNC(=O)c1ccc2c(c1)nc(Nc1nc3ccc(OC(F)(F)F)cc3s1)n2C` [Example 8, 1-Methyl-2-(6-trifluoromethoxy-benzothiazol-2-ylamino)-1H-benzoimidazole-5-carboxylic acid (2-methoxy-ethyl)-amide] showed a fold induction at 5 µM of 18.3.
